Assay results taken from patent EP4635500A1, “THERAPEUTIC AGENT FOR BACTERIAL INFECTION” (Sumitomo Pharma Co., Ltd., priority 2022, dated 2024).
Like-named read-outs stand apart in the source and are kept apart here.

Test system: Enterobacterales
Experiment: MIC, broth microdilution, CDC/FDA Antibiotic Resistance Isolate Bank (Example 7, Tables 8, 11, 12)
Format: cell-based

Measured: MIC

CN(C)c1cc(NC(=O)CNC(C)(C)C)c(O)c2c1C[C@H]1C[C@H]3[C@H](N(C)C)C(=O)C(C(N)=O)=C(O)[C@@]3(O)C(=O)C1=C2O [Tigecyeline]
0.12 µg/mL: Escherichia coli, KUB No. 5574, AR Bank # 77 | Escherichia coli, KUB No. 5578, AR Bank # 81 | Escherichia coli, KUB No. 5581, AR Bank # 84 | Escherichia coli, KUB No. 5601, AR Bank # 104 | Escherichia coli, KUB No. 5611, AR Bank # 114 | Escherichia coli, KUB No. 5615, AR Bank # 118 | Escherichia coli, KUB No. 5625, AR Bank # 128
4 µg/mL: Enterobacter cloacae, Enterobacter cloacae KUB No. 5808, AR Bank #502 | Enterobacter cloacae, KUB No. 5535, AR Bank# 38 | Klebsiella pneumoniae, KUB No. 5546, AR Bank# 49 | Morganella morganii, KUB No. 5630, AR Bank # 133, read-out: MIC
2 µg/mL: Enterobacter cloacae, KUB No. 5569, AR Bank # 72 | Enterobacter clooreae, KUB No. 5633, AR Bank # 136 | Klebsiella aerogenes, Enterobacter aerogenes, KUB No. 5559, AR Bank # 62 | Klebsiella pneumoniae, KUB No. 5537, AR Bank# 40 | Klebsiella pneumoniae, KUB No. 5543, AR Bank# 46 | Klebsiella pneumoniae, KUB No. 5563, AR Bank # 66 | Klebsiella pneumoniae, KUB No. 5565, AR Bank # 68 | Klebsiella pneumoniae, KUB No. 5572, AR Bank # 75 | Klebsiella pneumoniae, KUB No. 5584, AR Bank # 87 | Klebsiella pneumoniae, KUB No. 5603, AR Bank # 106 | Klebsiella pneumoniae, KUB No. 5612, AR Bank # 115 | Klebsiella pneumoniae, KUB No. 5635, AR Bank # 138 | Klebsiella pneumoniae, KUB No. 5640, AR Bank # 143 | Klebsiella pneumoniae, KUB No. 5649, AR Bank # 152 | Klebsiella pneumoniae, Klebsiella pneumoniae KUB No. 5811, AR Bank #506 | Klebsiella pneumoniae, Klebsiella pneumoniae KUB No. 5812, AR Bank #507 | Kluyvera ascorbata, KUB No. 5641, AR Bank # 144, read-out: MIC | Proteus mirabilis, KUB No. 5652, AR Bank # 155 | Proteus mirabilis, KUB No. 5656, AR Bank # 159 | Providencia rettgeri, KUB No. 5579, AR Bank # 82 | Serratia marcescens, Serratia marcescens KUB No. 5826, AR Bank #521
1 µg/mL: Enterobacter cloacae, Enterobacter cloacae KUB No. 5792, AR Bank #448 | Enterobacter cloacae, Enterobacter cloacae KUB No. 5807, AR Bank #501 | Enterobacter cloacae, KUB No. 5529, AR Bank# 32 | Enterobacter cloacae, KUB No. 5550, AR Bank# 53 | Enterobacter cloacae, KUB No. 5570, AR Bank # 73 | Escherichia coli, Escherichia coli KUB No. 5783, AR Bank #437 | Klebsiella aerogenes, Enterobacter aerogenes, KUB No. 5658, AR Bank # 161 | Klebsiella oxytoca, KUB No. 5568, AR Bank # 71 | Klebsiella ozaenae, KUB No. 5548, AR Bank# 51 | Klebsiella pneumoniae, KUB No. 5536, AR Bank# 39 | Klebsiella pneumoniae, KUB No. 5538, AR Bank# 41 | Klebsiella pneumoniae, KUB No. 5594, AR Bank # 97 | Klebsiella pneumoniae, KUB No. 5606, AR Bank # 109 | Klebsiella pneumoniae, KUB No. 5622, AR Bank # 125 | Klebsiella pneumoniae, KUB No. 5626, AR Bank # 129 | Klebsiella pneumoniae, KUB No. 5632, AR Bank # 135 | Klebsiella pneumoniae, KUB No. 5637, AR Bank # 140 | Klebsiella pneumoniae, KUB No. 5638, AR Bank # 141 | Klebsiella pneumoniae, KUB No. 5639, AR Bank # 142 | Klebsiella pneumoniae, KUB No. 5643, AR Bank # 146 | Klebsiella pneumoniae, KUB No. 5645, AR Bank # 148 | Klebsiella pneumoniae, KUB No. 5650, AR Bank # 153 | Klebsiella pneumoniae, KUB No. 5655, AR Bank # 158 | Klebsiella pneumoniae, Klebsiella pneumoniae KUB No. 5784, AR Bank #438 | Klebsiella pneumoniae, Klebsiella pneumoniae KUB No. 5797, AR Bank #453 | Klebsiella pneumoniae, Klebsiella pneumoniae KUB No. 5809, AR Bank #504 | Klebsiella pneumoniae, Klebsiella pneumoniae KUB No. 5827, AR Bank #522 | Klebsiella pneumoniae, Klebsiella pneumoniae KUB No. 5828, AR Bank #523 | Klebsiella pneumoniae, Klebsiella pneumoniae KUB No. 5829, AR Bank #524 | Klebsiella pneumoniae, Klebsiella pneumoniae KUB No. 5830, AR Bank #525 | Proteus mirabilis, KUB No. 5556, AR Bank# 59 | Proteus mirabilis, KUB No. 5653, AR Bank # 156 | Serratia marcescens, KUB No. 5596, AR Bank # 99 | Serratia marcescens, KUB No. 5618, AR Bank # 121 | Serratia marcescens, KUB No. 5619, AR Bank # 122 | Serratia marcescens, KUB No. 5620, AR Bank # 123 | Serratia marcescens, KUB No. 5621, AR Bank # 124 | Serratia marcescens, KUB No. 5627, AR Bank # 130 | Serratia marcescens, KUB No. 5628, AR Bank # 131 | Serratia marcescens, Serratia marcescens KUB No. 5825, AR Bank #520
0.25 µg/mL: Enterobacter cloacae, KUB No. 5547, AR Bank# 50 | Enterobacter cloacae, KUB No. 5557, AR Bank# 60 | Escherichia coli, Escherichia coli KUB No. 5803, AR Bank #861 | Escherichia coli, KUB No. 5558, AR Bank # 61 | Escherichia coli, KUB No. 5564, AR Bank # 67 | Escherichia coli, KUB No. 5566, AR Bank # 69 | Escherichia coli, KUB No. 5582, AR Bank # 85 | Escherichia coli, KUB No. 5586, AR Bank # 89 | Escherichia coli, KUB No. 5646, AR Bank # 149 | Escherichia coli, KUB No. 5647, AR Bank # 150 | Escherichia coli, KUB No. 5648, AR Bank # 151 | Klebsiella aerogenes, Enterobacter aerogenes, KUB No. 5571, AR Bank # 74 | Klebsiella pneumoniae, KUB No. 5573, AR Bank # 76 | Klebsiella pneumoniae, KUB No. 5577, AR Bank # 80 | Klebsiella pneumoniae, KUB No. 5604, AR Bank # 107 | Raoultella ornithinolvtica, KUB No. 5631, AR Bank # 134, read-out: MIC
0.5 µg/mL: Citrobacter freundii, KUB No. 5654, AR Bank # 157, read-out: MIC | Enterobacter cloacae, Enterobacter cloacae group, KUB No. 5629, AR Bank # 132 | Enterobacter cloacae, KUB No. 5562, AR Bank # 65 | Enterobacter cloacae, KUB No. 5590, AR Bank # 93 | Enterobacter cloaccae, KUB No. 5651, AR Bank # 154 | Escherichia coli, Escherichia coli KUB No. 5794, AR Bank #450 | Escherichia coli, Escherichia coli KUB No. 5795, AR Bank #451 | Escherichia coli, Escherichia coli KUB No. 5796, AR Bank #452 | Escherichia coli, KUB No. 5583, AR Bank # 86 | Escherichia coli, KUB No. 5616, AR Bank # 119 | Escherichia coli, KUB No. 5634, AR Bank # 137 | Escherichia coli, KUB No. 5659, AR Bank # 162 | Klebsiella oxytoca, KUB No. 5644, AR Bank # 147 | Klebsiella ozaenae, KUB No. 5593, AR Bank # 96 | Klebsiella pneumoniae, KUB No. 55, AR Bank# 47 | Klebsiella pneumoniae, KUB No. 5531, AR Bank# 34 | Klebsiella pneumoniae, KUB No. 5540, AR Bank# 43 | Klebsiella pneumoniae, KUB No. 5541, AR Bank# 44 | Klebsiella pneumoniae, KUB No. 5576, AR Bank # 79 | Klebsiella pneumoniae, KUB No. 5595, AR Bank # 98 | Klebsiella pneumoniae, KUB No. 5609, AR Bank # 112 | Klebsiella pneumoniae, KUB No. 5610, AR Bank # 113 | Klebsiella pneumoniae, KUB No. 5614, AR Bank # 117 | Klebsiella pneumoniae, KUB No. 5617, AR Bank # 120 | Klebsiella pneumoniae, KUB No. 5623, AR Bank # 126 | Klebsiella pneumoniae, KUB No. 5636, AR Bank # 139 | Klebsiella pneumoniae, KUB No. 5642, AR Bank # 145 | Klebsiella pneumoniae, KUB No. 5657, AR Bank # 160 | Klebsiella pneumoniae, Klebsiella pneumoniae KUB No. 5810, AR Bank #505 | Morganella morganii, KUB No. 5554, AR Bank# 57 | Salmonella enterica, Salmonella Senftenberg, KUB No. 5624, AR Bank # 127, read-out: MIC | Serratia marcescens, KUB No. 5588, AR Bank # 91
